Laboratory results taken from PubChem BioAssay AID256 (DTP/NCI, 2004).
Several values for one entry are separate records, joined by “and”; a condition that tells them apart may be missing. Equal entries are not always repeated. Toxic doses and inconclusive results are not listed. How the source made its calls: active means survival T/C of 150% or more; inactive means T/C below 125% in these data.

Test system: CD2F1 mice, L1210 leukemia ip, survival T/C
Assay: NCI In Vivo Anticancer Drug Screen. Data for tumor model L1210 Leukemia (intraperitoneal) in CD2F1 (CDF1) mice
Conditions: endpoint: mean survival time, higher = longer survival
Method in brief: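 Antitumor effect is scored in animals hosting a serially transplanted tumor. Values compare compound-dosed animals against vehicle-only controls as a simple quotient.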

[1] = dose: 25.0 mg/kg/injection, schedule: Q04DX002 (ip), vehicle: saline with Tween-80
[2] = dose: 50.0 mg/kg/injection, schedule: Q04DX002 (ip), vehicle: saline with Tween-80
[3] = dose: 100.0 mg/kg/injection, schedule: Q04DX003 (ip), vehicle: saline with Tween-80
[4] = dose: 200.0 mg/kg/injection, schedule: Q04DX003 (ip), vehicle: saline with Tween-80
[5] = dose: 100.0 mg/kg/injection, schedule: Q04DX002 (ip), vehicle: saline with Tween-80

Measured: T/C

CCCCCCCCCCCCCCCCCCN1CCCN(CCCCCCCCCCCCCCCCCC)CC1
inactive: dose: 25.0 mg/kg/injection, schedule: Q01DX009 (ip), vehicle: saline with Tween-80 107 % of control and 111 % of control | [1] 93 % of control and 98 % of control | dose: 50.0 mg/kg/injection, schedule: Q01DX001 (ip), vehicle: saline with Tween-80 98 % of control | dose: 50.0 mg/kg/injection, schedule: Q01DX009 (ip), vehicle: other 93 % of control and 95 % of control | [2] 89 % of control and 97 % of control | dose: 50.0 mg/kg/injection, schedule: Q04DX003 (ip), vehicle: saline with Tween-80 104 % of control | dose: 100.0 mg/kg/injection, schedule: Q01DX001 (ip), vehicle: other 94 % of control | dose: 100.0 mg/kg/injection, schedule: Q01DX001 (ip), vehicle: saline with Tween-80 91 % of control | dose: 100.0 mg/kg/injection, schedule: Q01DX009 (ip), vehicle: other 115 % of control and 101 % of control | dose: 100.0 mg/kg/injection, schedule: Q04DX002 (ip), vehicle: other 94 % of control and 96 % of control | dose: 100.0 mg/kg/injection, schedule: Q04DX003 (ip), vehicle: other 93 % of control | [3] 89 % of control | dose: 200.0 mg/kg/injection, schedule: Q01DX001 (ip), vehicle: other 98 % of control | dose: 200.0 mg/kg/injection, schedule: Q01DX001 (ip), vehicle: saline with Tween-80 95 % of control | dose: 200.0 mg/kg/injection, schedule: Q01DX009 (ip), vehicle: other 102 % of control and 108 % of control | dose: 200.0 mg/kg/injection, schedule: Q04DX002 (ip), vehicle: other 96 % of control and 105 % of control | dose: 200.0 mg/kg/injection, schedule: Q04DX003 (ip), vehicle: other 96 % of control | [4] 101 % of control | dose: 400.0 mg/kg/injection, schedule: Q01DX001 (ip), vehicle: other 110 % of control | dose: 400.0 mg/kg/injection, schedule: Q01DX009 (ip), vehicle: other 101 % of control and 104 % of control | dose: 400.0 mg/kg/injection, schedule: Q04DX002 (ip), vehicle: other 105 % of control | dose: 400.0 mg/kg/injection, schedule: Q04DX003 (ip), vehicle: other 100 % of control

CCOC(=O)C1(C(=O)O)CC2C(C)C=CC(C)C2C1 (stereo not given)
inactive: dose: 100.0 mg/kg/injection, schedule: Q01DX009 (ip), vehicle: Klucel (hydroxypropylcellulose) (HPC) 100 % of control | dose: 200.0 mg/kg/injection, schedule: Q01DX009 (ip), vehicle: Klucel (hydroxypropylcellulose) (HPC) 102 % of control | dose: 400.0 mg/kg/injection, schedule: Q01DX009 (ip), vehicle: Klucel (hydroxypropylcellulose) (HPC) 96 % of control

CCOC(=O)C1CC(C(=O)OCC)C(=O)C1=O (stereo not given)
inactive: dose: 100.0 mg/kg/injection, schedule: Q01DX009 (ip), vehicle: saline with Tween-80 105 % of control | dose: 200.0 mg/kg/injection, schedule: Q01DX009 (ip), vehicle: saline with Tween-80 103 % of control | dose: 400.0 mg/kg/injection, schedule: Q01DX009 (ip), vehicle: saline with Tween-80 97 % of control

CCCCCCCCC/C(C)=N\NC(=O)c1ccccc1
inactive: dose: 100.0 mg/kg/injection, schedule: Q01DX009 (ip), vehicle: saline sonified 100 % of control | dose: 400.0 mg/kg/injection, schedule: Q01DX009 (ip), vehicle: saline sonified 108 % of control

O=C(O)c1c[nH]c2ccccc2c1=O
inactive: [3] 101 % of control | [4] 101 % of control | dose: 400.0 mg/kg/injection, schedule: Q04DX003 (ip), vehicle: saline with Tween-80 90 % of control

Cc1cc(C(O)c2ccccn2)c2cc(Cl)cc(Cl)c2n1 (stereo not given)
inactive: [5] 97 % of control | dose: 200.0 mg/kg/injection, schedule: Q04DX002 (ip), vehicle: saline with Tween-80 102 % of control | dose: 400.0 mg/kg/injection, schedule: Q04DX002 (ip), vehicle: saline with Tween-80 97 % of control

CC(C)(C)/[N+]([O-])=C/Cc1ccccc1
inactive: [1] 97 % of control | [2] 110 % of control | [5] 110 % of control

OCC1OCOC(CO)C(O)C1O (stereo not given)
inactive: dose: 100.0 mg/kg/injection, schedule: Q04DX002 (ip), vehicle: saline 114 % of control | dose: 200.0 mg/kg/injection, schedule: Q04DX002 (ip), vehicle: saline 111 % of control | dose: 400.0 mg/kg/injection, schedule: Q04DX002 (ip), vehicle: saline 100 % of control

CCCCOC(=O)c1ccc(Cl)c(Cl)c1
inactive: dose: 100.0 mg/kg/injection, schedule: Q04DX003 (ip), vehicle: Klucel (hydroxypropylcellulose) (HPC) 92 % of control | dose: 200.0 mg/kg/injection, schedule: Q04DX003 (ip), vehicle: Klucel (hydroxypropylcellulose) (HPC) 96 % of control | dose: 400.0 mg/kg/injection, schedule: Q04DX003 (ip), vehicle: Klucel (hydroxypropylcellulose) (HPC) 103 % of control
